# Source: ChEMBL document CHEMBL5725252, “Spirocyclic dihydro-thiazine and dihydro-oxazine BACE inhibitors, and compositions and uses thereof” (2016)
# What was measured:
# Beta-secretase 1 [1] = target: T1, Beta-secretase 1 (Homo sapiens, UniProt P56817); experiment: AlphaScreen Assay: BACE1 activity can be assessed in an AlphaScreen® assay. Compounds to be assessed (e.g. compounds as described in the above examples) are serially diluted 1:4 in DMSO, then plated by diluting 10 μL of compound with 40 μl of assay buffer (1×PBS, 0.01% Tween-20, pH 7.0, 0.05% BSA). The diluted compound is transferred (4 μL per well) to a […] well assay plate and 4 μL of BACE1 enzyme (20 mg/mL) is added and incubated for 15 minutes. This assay uses a probe that is a BACE1 binding sight ligand linked to biotin, which can be displaced by test compound dependent on compound binding affinity. This of biotinylated probe (4 μL) is added and incubated for 1 hour, followed with 4 μL of donor and acceptor bead mixture and incubated for 2 hours. The fluorescent signal is read on a plate reader and the value as a function of compound concentration is used to determine the IC50.
# Beta-secretase 1 [2] = target: T1, Beta-secretase 1; experiment: FP Assay: Compounds are also assessed for BACE1 and Cathepsin D activity using an FP Assay. Compounds to be assessed (e.g. compounds as described in the above examples) are serially diluted 1:3 with DMSO and each concentration point is transferred to a 96 well plate, 6 uL per well, followed by addition of 194 uL of assay buffer (100 mM sodium acetate, pH 4.5 with 0.001% Tween-20). A 10 uL compound sample from this plate is transferred to a well of a 384 well plate and combined with 10 uL per well of BACE1 enzyme (0.3 nM in assay buffer) or Cathepsin D enzyme (1.8 nM in assay buffer) and the plate is incubated at room temperature for 30 minutes.
# T1 sequence (P56817 whole entry): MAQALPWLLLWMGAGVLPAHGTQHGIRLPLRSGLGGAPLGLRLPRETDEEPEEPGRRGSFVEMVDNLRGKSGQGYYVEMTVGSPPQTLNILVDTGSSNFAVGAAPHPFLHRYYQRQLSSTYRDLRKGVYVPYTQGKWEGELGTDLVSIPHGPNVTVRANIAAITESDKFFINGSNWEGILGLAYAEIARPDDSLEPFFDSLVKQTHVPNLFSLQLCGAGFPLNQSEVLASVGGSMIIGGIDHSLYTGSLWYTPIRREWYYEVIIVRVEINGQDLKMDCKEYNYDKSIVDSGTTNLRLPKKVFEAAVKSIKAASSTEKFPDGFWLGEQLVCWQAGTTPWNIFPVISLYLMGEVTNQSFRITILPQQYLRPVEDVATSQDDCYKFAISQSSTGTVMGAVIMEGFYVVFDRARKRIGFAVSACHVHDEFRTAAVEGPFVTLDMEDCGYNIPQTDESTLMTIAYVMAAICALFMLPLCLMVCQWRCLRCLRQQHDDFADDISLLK
smiles,measurement,setting,value
C[C@@]1(c2cc(/C=C/c3ccc(F)cc3)ccc2F)CC2(CCC(F)(F)CC2)OC(N)=N1,IC50,Beta-secretase 1 [1],1.96 µM
same,IC50,Beta-secretase 1 [2],13.1 µM
